The values below are quoted from earlier work in patent US20050079205A1, “Oleamide-containing composition for animal consumption” (priority 2003, published 2005).

The test system of one data set is lactating Jersey cows. To be noted: feed supplemented with up to 3.5% oleamide; cited from earlier work.
In another data set the test system is Holstein cows. To be noted: 4.2% oleamide through feed or ruminal cannula; cited from earlier work.

Take `CCCCCCCC/C=C\CCCCCCCC(N)=O` [oleamide, cis-9-octadecenioamide]: the dry matter intake result with lactating Jersey cows and in the data set with Holstein cows was “reduction in dry matter intake” each time.
